How the values were obtained:
Plasmodium falciparum [1] = test: NOVARTIS: Inhibition of Plasmodium falciparum W2 (drug-resistant) proliferation in erythrocyte-based infection assay; type: functional, organism-based; conditions: Plasmodium falciparum, W2; read-out: EC50
Plasmodium falciparum [2] = test: NOVARTIS: Inhibition of Plasmodium falciparum 3D7 (drug-susceptible) proliferation in erythrocyte-based infection assay; type: functional, organism-based; conditions: Plasmodium falciparum, 3D7
[3] = NOVARTIS: Cytotoxicity against human hepatocellular carcinoma cell line (Huh7); type: toxicity, cell-based, Huh-7; conditions: Huh7 cells (hepatocellular carcinoma cell line)

SMILES	EC50 (Plasmodium falciparum [1]) [nM]	EC50 (Plasmodium falciparum [2]) [nM]	CC50 [3] [nM]
CSC1=NC(=Nc2c(C)cccc2C)C2(CCC(C(C)(C)C)CC2)N1c1ccc(Cl)cc1 (centres undefined)	> 10000	1480	> 67300
NC(=O)NN=C1c2cc(S(=O)(=O)NCc3ccco3)ccc2-c2ccc(S(=O)(=O)NCc3ccco3)cc21	> 1540	1180	> 10000
Cc1nc(-c2ccccn2)nc(NCCc2ccccc2)c1Cl	1510	1250	> 10000
COc1ccc2nc(C)cc(Nc3ccc(Cl)cc3)c2c1	2680	1230	18300
O=S(=O)(NC1=CC2C(=Nc3ccc(NS(=O)(=O)c4ccc(Br)cc4)cc3N2c2ccccc2)C=C1)c1ccc(Br)cc1 (centres undefined)	> 1470	929	> 10000
O=C(Cc1ccccc1)Nc1ccc(C(=O)Nc2ccc(-c3nc4ccc(NC(=O)c5ccc(NC(=O)Cc6ccccc6)cc5)c(Cl)c4[nH]3)cc2)cc1	6020	8000	40000
COc1ccc(-c2cc(-c3ccccc3)nc(SCC(=O)N3c4ccccc4Sc4ccc(Cl)cc43)c2C#N)cc1	> 1530	> 427	> 10000
O=c1c2sccc2nc(SCc2cccc([N+](=O)[O-])c2)n1C1CC1	> 1520	1250	> 10000
COc1cc(OC)c(OC)cc1CN1CCN(C(C)C)CC1	> 1480	> 1010	> 10000
COc1cccc(-n2sc3c(c2=S)-c2cc(OC)ccc2NC3(C)C)c1	1480	> 991	> 10000
COc1cc(/C=C(\C#N)c2nc3ccccc3[nH]2)ccc1OCc1ccc(C)cc1	1470	1050	> 10000
O=C(Nc1ccc(-c2nc3cc(NC(=O)c4ccc(Cl)cc4)ccc3[nH]2)cc1)c1ccc(Cl)cc1	> 12500	993	83800
CCCCCC[n+]1ccccc1C=Cc1ccc(N(C)C)cc1	238	118	1600
O=C(Nc1ccc(-n2cccn2)cc1)C1CCN(C/C=C/c2ccccc2)CC1	1540	464	> 10000
Cc1ccc(NC(=O)CN2CCN(c3ccccn3)CC2)cc1F	> 1540	2080	> 10000
Cc1ccccc1Nc1sc(C(=O)c2ccc([N+](=O)[O-])cc2)c(N)c1C(=O)Nc1ccccc1	> 1540	> 1200	> 10000
O=C(CN(CCN1CCOCC1)S(=O)(=O)c1ccccn1)N1CCN(C(c2ccccc2)c2ccccc2)CC1	4440	> 12500	> 28800
COc1ccc2nc(C)cc(N(c3ccc(Br)cc3)S(=O)(=O)c3ccc([N+](=O)[O-])cc3)c2c1	1050	647	6830
C=CCNC(=O)c1ccc2c(c1)N=C(CC(C)c1ccccc1)N(CC1CCCCC1)C2 (centres undefined)	1530	> 1250	> 10000
COc1ccc(C2=C(c3ccc(OC)cc3)C3C(=O)C2C2C(=O)N(c4cccc5ccccc45)C(=O)C32)cc1 (centres undefined)	> 1510	> 1090	> 10000
COc1ccc(C2C(C(=O)OC3CCCCC3)=C(C)Nc3nnnn32)cc1 (centres undefined)	> 11200	> 10000	> 74100
CC1CCCCN1CCCNc1ncc(C(=O)NCCc2ccccc2)c(NCC2CCCO2)n1 (centres undefined)	> 1560	914	> 10000
CC(C)(C)c1ncccc1OC(=O)C12CC3CC(CC(C3)C1)C2	> 1470	349	> 10000
Clc1ccc(-c2nc3cc(Cl)cnc3[nH]2)cc1	> 1250	565	> 8520

SMILES	EC50 (Plasmodium falciparum [1]) [nM]	EC50 (Plasmodium falciparum [2]) [nM]	CC50 [3] [nM]
CCOC(=O)NN=C1C=C2C=CC3C(CC[C@@]4(C)C3CC3CCCCC34C(C)=O)[C@@]2(C)CC1 (some centres undefined)	> 1560	> 902	> 10000
NCCCNc1ncc(C(=O)NCc2ccccc2)c(NCC2CCCCC2)n1	799	91.2	5140
O=[N+]([O-])c1cccc2c(S(=O)(=O)NCCCN(CCO)CCO)cccc12	> 1550	> 1180	> 10000
O=C(Nc1ccc(N2CCCCC2)cc1)N1CCc2nc[nH]c2C1	1010	> 1250	> 6670
N#CCSc1nc2ccccc2c2nc(CCc3c[nH]c4ccccc34)nn12	3850	3870	25400
Cc1cc(I)ccc1N1C(=O)C2C3c4ccccc4C(CO)(c4ccccc43)C2C1=O (centres undefined)	> 10100	> 11200	> 67900
Cc1c(C(=O)Nc2ccccc2)sc2ncn(Cc3ccccc3F)c(=O)c12	> 1480	> 875	> 10000
CCC(c1nc2ccccc2c(=O)n1-c1ccc(F)cc1)N(CCc1ccccc1)C(=O)CCc1ccccc1 (centres undefined)	1540	1520	> 10000
c1ccc(C[C@H]2CN(c3ccc4ccccc4c3)CCN2CCNCC2CCCO2)cc1 (some centres undefined)	380	272	2540
C=CCSC1=NC2(CC(c3ccccc3)c3cc(Cl)c(O)cc3O2)CC(C)(C)N1 (centres undefined)	1520	> 1190	> 10000
CC(=O)Nc1cc([N+](=O)[O-])ccc1N1CCOCC1	1500	> 1550	> 10000
CCCN(CC(=O)Nc1cc(C(C)(C)C)nn1-c1cccc(C)c1C)C(=O)C1CCCCC1	> 1390	1180	9450
Nc1cc2c(cc1Br)CCCC2	> 1470	> 1030	> 10000
COC(=O)c1ccc(NC(=O)CSc2nc3cc4c(cc3cc2C#N)OCCO4)cc1	1540	1610	> 10000
Cn1c(=O)c2c(nc3n(CCCO)c(C45CC6CC(CC(C6)C4)C5)cn23)n(C)c1=O	1540	> 1250	> 10000
CCOC(=O)CCS(=O)(=O)c1ccc(Br)cc1	> 1460	237	> 10000
O=C1C=C(Nc2ccc(O)cc2)c2ccccc2C1=O	785	730	5120
O=C1Nc2ccc(S(=O)(=O)Nc3ccc(NS(=O)(=O)c4ccc5c6c(cccc46)C(=O)N5)cc3)c3cccc1c23	> 1250	> 1180	> 8120
COc1cc2c(O[C@@H]3O[C@H](CO)[C@@H](O)[C@H](O)[C@H]3O)c3c(c(-c4ccc5c(c4)OCO5)c2cc1OC)C(=O)OC3	120	74.3	784
C=CCN1C(=O)/C(=C\c2cc(Cl)c(O)c(OC)c2)C(=O)NC1=S	> 1480	2110	> 10000
Cc1ccc(N2C3c4ccccc4N(S(=O)(=O)c4ccc(C)cc4)C2c2ccccc2N3S(=O)(=O)c2ccc(C)cc2)cc1	1490	720	> 10000
CCN1CCN(c2cc(C)c3cc(NC(=O)/C=C/c4sccc4C)ccc3n2)CC1	> 1550	1590	> 10000
CCOC(=O)CN(N=O)C1=C(N2CC2)C(=O)c2ccccc2C1=O	3850	206	25400
O=C(NCc1ccccc1)c1cccc2c(Br)cccc12	1470	> 1100	> 10000
